Data from patent publication USRE37770E1, “Treatment of skin conditions by use of PPARα activators” (The Regents of the University of California, priority 1997, dated 2002).

Legend:
[1] = test system: Skin explants from gestational day 17 rats; assay: Light and electron microscopy of fetal rat skin explants (epidermal maturation); assay type: cell-based; settings: 300 μM, 48 hours
Protocol: Samples for light microscopy were fixed in modified Karnovsky's solution, plastic-embedded, and 0.5 μm sections were stained with toluidine. Samples for electron microscopy were minced into 1 mm^3 pieces, fixed in modified Karnovsky's fixative, and processed. Sections were stained with uranyl acetate and lead citrate, post-fixed in ruthenium tetroxide, and examined using a Zeiss 10A electron microscope.
Explants incubated in various media woe examined by light microscopy. The incubation di included control medium (containing no activators) and various media individually containing 300 μM clofibrate, 100 μM juvenile hormone III, 300 μM oleic acid, 30 μM linoleic acid, 50 μM farnesol, and various concentrations of 9-cis-retinoic acid, all-trans-retinoic acid, and 1,25-dihydroxy vitamin D3.
Observations were then made of the ultrastructural maturation of the outer epidermis in explants that had been incubated in the various media and then post-fixed in ruthenium tetroxide. Media identical to those of the preceding paragraph were used, excluding the retinoic acid-containing and 1,25-dihydroxy vitamin D3-containing media.

β-Glucocerebrosidase = β-Glucocerebrosidase activity in epidermis of treated fetal rat skin explants; assay type: cell-based, rats; settings: clofibrate (300 μM), juvenile hormone III (100 μ), mean of five ± SEM
Protocol: (§1) Epidermis was separated from dermis after incubation in 10 mM ethylenediamine tetraacetic acid (EDTA) in Ca^++- and Mg^++-free phosphate-buffered saline (PBS), pH 7.4, at 37° C. for 30-40 minutes. The tissues were then minced, and homogenized on ice (three times at 15 seconds each with a Polytron homogenizer, followed by sonication twice at ten seconds each at 35% power) in either PBS containing 0.1 mM phenylmethylsulfonyl fluoride (PMSF) and 0.1% Triton X-100 (for β-glucocerebrosidase) or in 10 mM Tris (PH 7.5) containing 0.15 M sucrose and 2 mM EDTA (for steroid sulfatase). β-Glucocerebrosidase activity was measured in the supernatant following centrifugation at 10,000×g for fifteen minutes at 4° C. Steroid sulfatase activity was measured in the microsomal fraction resulting from a […] centrifugation (10 minutes, 4° C.) followed by 60 minutes of 100,000×g ultracentrifugation at 4° C. Protein content was measured by conventional techniques.
β-Glucocerebrosidase) activity was assayed using the synthetic substrate 4-methylumbelliferyl β-D-glucoside (4-MUG). The assays were performed in 5 mM sodium taurocholate in citrate-phosphate buffer (pH 5.6) with 0.5 mM 4-MUG for sixty minutes at 37° C., with a final assay volume of 100 μL, and protein concentration of 1-2 mg/mL. The reaction was terminated with 2 mL of carbonate-bicarbonate buffer (pH 10.5). The fluorescence was then measured at […] (excitation) and 450 λ (emission) and compared with a standard 4-methylumbelliferone (4-MU) curve.
(§2) Skin explants from 17-day fetal rats were incubated for 24 or 48 hours in media individually containing clofibrate (300 μM) and juvenile hormone III […], and control media. Enzyme activity was measured and the results are presented in Table I as the mean values of five determinations±SEM (standard error of the mean). All p values are ≦0.005 compared with controls of the same time period.

Steroid Sulfatase = assay: Steroid sulfatase activity in epidermis of treated fetal rat skin explants; assay type: cell-based, rats; settings: clofibrate (300 μM), juvenile hormone III (100 μ), mean of five ± SEM
Protocol: as §1
Steroid sulfatase activity was measured by incubating 100 μg of microsomal protein in 0.1 M Tris containing 5.6 mM glucose (pH 7.4) with 15 μM, (^3H) dihydroepiandrosterone sulfate (DHEAS) (15 μCi) in a final volume of 1.1 mL The product, (^3H) DHEA, was extracted with benzene and an aliquot counted by scintillation spectrophotometry.
as §2

[2] = test system: Preconfluent keratinocytes; assay: Keratinocyte growth: DNA content (bis-benzimidazole fluorimetry); assay type: cell-based, human; settings: mean of three samples
Protocol: Preconfluent keratinocytes were treated for 48 hours with varying concentrations of clofibrate ranging from 0 (vehicle only) to 400 μM, in both low (0.03 mM) calcium and high (1.2 mM) calcium. The treated keratinocytes were harvested and sonicated, and the resulting homogenates were incubated with 1 μL/mL bis-benzimidazole for two hours in the dark. DNA content was quantified by reading the samples on a spectrofluorimeter. Each value in the table is a mean of three samples.

transglutaminase protein = assay: Transglutaminase protein level in keratinocytes by Western blotting; assay type: cell-based, Human; settings: low calcium (0.03 mM), 24 hours
Protocol: Protein concentration was assessed by protein electrophoresis and Western blotting. Cells were lysed is 2% SDS and the lysate sonicated. Protein determinations were made by use of a Bicinchoninic add protein assay (Pierce Chemical Company, Rockford, Ill. USA). Following protein determination, equal amounts at protein (50 μg) were separated by electrophoresis an 7.5% polyacrylamide gels and electroblotted onto polyvinylidene […] membranes (0.2-μ, obtained from Bio-Rad Laboratories Hercules, Calif., USA). Involucrin protein was detected by incubation over-night at 4° C. C. with a polyclonal rabbit anti-human involucrin antibody (1:1000 dilution). The involucrin-specific bands on the autoradiograms were quantitated by densitometry by densitometry. Transglutaminase protein expression was measured in a similar […], using stacking, sample and running buffers containing 4 M urea, and the gels following electrophoresis were washed in 4 M urea, 25 mM TRIS-HCl, pH 7.4, 7.5 mM NaCl, 0.1 mM dithiothreitol (DTT), and 2 mM ethylenediamine tetraacetic acid for 90 minutes prior to electoblotting, allowing the transglutaminase to be detected by antibody. Specific bands on the autoradiograms were quantified by densitometry. Levels of involucrin and transglutaminase protein were measured in keratinocytes incubated in low calcium (0.03 mM) and treated with the test compounds for 24 hours. The are shown in the bar graph of FIG. 17a, where the test compounds are compared with the vehicle alone (control) and cholesterol, using the same bar indications as in FIGS 14 through 16. […] Cholesterol had no effect.

keratinocytes = assay: Rate of DNA synthesis (3H-thymidine incorporation) in keratinocytes; assay type: cell-based, Human; settings: 10 μM, 24 hours, low calcium (0.03 mM); 16-hour 3H-thymidine period
Protocol: The rate of DNA synthesis was determined by measuring the incorporation of ^3H-thymidine into cellular DNA after 16 hours of incubation with 2 μCi^3H-thymidine per mL of media (110 Ci/mmol methyl-1′,2′-^3H-thymidine (Amersham Laboratories, Arlington Heights, Ill. USA). The cells were then solubilized in 1N NaOH, and the radioactivity in the washed TCA precipitate was quantitated by scintillation spectroscopy.
Using the procedures set forth in the Materials and Methods section above, 25-hydroxycholesterol (10 μM) and 22(R)-hydroxycholesterol (10 μM, were compared with cholesterol (10 μM) and the vehicle alone control), with treatment for 24 hours under low calcium (0.03 mM) condition. The results are shown in the bar graph of FIG. 19.

How did the “light microscopy of the epidermis” value [1] turn out when `CCOC(=O)C(C)(C)Oc1ccc(Cl)cc1` [clofibrate, 2-(4-chlorophenoxy)-2-methylpropanoic acid ethyl ester] was run?
Its value is “had both a multi-layered stratum granulosum and a stratum corneum”.

What about the “β-Glucocerebrosidase Activity” value (β-Glucocerebrosidase; 24-Hour Incubation) of the same compound?
Its value is 2.97 ± 0.30 nmol/min/mg.

And the “β-Glucocerebrosidase Activity” value (β-Glucocerebrosidase; 48-Hour Incubation)?
The value was 5.35 ± 0.89 nmol/min/mg.

What about the “Steroid Sulfatase Activity” value (Steroid Sulfatase; 24-Hour Incubation) of the same compound?
Its value is 13.90 ± 1.10 pmol/h/mg.

And the “Steroid Sulfatase Activity” value (Steroid Sulfatase; 48-Hour Incubation)?
Its value is 22.51 ± 2.60 pmol/h/mg.

What about the “DNA Content After 48 Hours” value ([2]; Clofibrate 50 μM) of the same compound?
The value was 14.9 ± 1.5 μg/dish.

And the “DNA Content After 48 Hours” value ([2]; Clofibrate 200 μM)?
The value was 12.9 ± 1.1 μg/dish.

And the “DNA Content After 48 Hours” value ([2]; Clofibrate 400 μM)?
The value was 11.0 ± 1.3 μg/dish.

Which results are given for `C[C@H](CCCC(C)(C)O)[C@H]1CC[C@H]2[C@@H]3CC=C4C[C@@H](O)CC[C@]4(C)[C@H]3CC[C@]12C` [25-hydroxycholesterol]?
TG'ase protein level relative to the control (transglutaminase protein): approximately 1.6 fold; rate of DNA synthesis (keratinocytes): 50 % of control
